Results taken from patent publication US12310946B2, “Pharmaceutical composition for oral administration of edaravone and method of administering same” (MITSUBISHI TANABE PHARMA CORPORATION, priority 2020, dated 2025).

Experiment: in vitro
Conditions: human, Caco-2, pH 7.4
Method: Caco-2 cells were seeded on a 24-well plate, cultured at 37° C. for 21 to 23 days in a CO2 incubator, and then a Caco-2 cell monolayer membrane permeability test was conducted. After checking the membrane resistance value of the cell layer after the culture, the culture medium in the plate was replaced with HBSS (pH 7.4). […] For the control compounds, [^3H]propranolol as a high membrane permeability control and [^14C]mannitol as a low membrane permeability control were used.

| Papp A→B at 2 h, 10 μmol/L [×10⁻⁶ cm/s] | Compound |
| --- | --- |
| 28.9 ± 1.1 | CC(C)NCC(O)COc1cccc2ccccc12 (centres unmarked) [[^3H]Propranolol, [^3H]propranolol] |
| 0.53 ± 0.007 | OC[C@@H](O)[C@@H](O)[C@H](O)[C@H](O)CO [[^14C]Mannitol, [^14C]mannitol] |
